Data on 22 compounds can be found in US20240018157A1, “CYCLIC COMPOUNDS AND METHODS OF USING SAME” (Schrödinger, Inc., priority 2019, published 2024).

In general, IC50 refers to the point on the concentration scale where inhibition reaches its midpoint.

One test deals with full-length MALT1 protein His-MALT1(1-824) (Homo sapiens (Human), UniProt Q9UDY8). Briefly: MALT1 protease assay, Assay 2 (1 nM MALT1, Ac-LRSR-AMC substrate). The format is biochemical. The conditions noted are these: 1 nM MALT1, 50 μM Ac-LRSR-AMC, 2 h pre-incubation, 8 hr incubation at RT. How it is done: MALT1 protease activity was assessed in an in vitro assay using a tetrapeptide as substrate and full-length MALT1 protein His-MALT1(1-824) purified from baculovirus-infected insect cells.
full-length MALT1 protein His-MALT1(1-824), sequence (Q9UDY8 whole entry): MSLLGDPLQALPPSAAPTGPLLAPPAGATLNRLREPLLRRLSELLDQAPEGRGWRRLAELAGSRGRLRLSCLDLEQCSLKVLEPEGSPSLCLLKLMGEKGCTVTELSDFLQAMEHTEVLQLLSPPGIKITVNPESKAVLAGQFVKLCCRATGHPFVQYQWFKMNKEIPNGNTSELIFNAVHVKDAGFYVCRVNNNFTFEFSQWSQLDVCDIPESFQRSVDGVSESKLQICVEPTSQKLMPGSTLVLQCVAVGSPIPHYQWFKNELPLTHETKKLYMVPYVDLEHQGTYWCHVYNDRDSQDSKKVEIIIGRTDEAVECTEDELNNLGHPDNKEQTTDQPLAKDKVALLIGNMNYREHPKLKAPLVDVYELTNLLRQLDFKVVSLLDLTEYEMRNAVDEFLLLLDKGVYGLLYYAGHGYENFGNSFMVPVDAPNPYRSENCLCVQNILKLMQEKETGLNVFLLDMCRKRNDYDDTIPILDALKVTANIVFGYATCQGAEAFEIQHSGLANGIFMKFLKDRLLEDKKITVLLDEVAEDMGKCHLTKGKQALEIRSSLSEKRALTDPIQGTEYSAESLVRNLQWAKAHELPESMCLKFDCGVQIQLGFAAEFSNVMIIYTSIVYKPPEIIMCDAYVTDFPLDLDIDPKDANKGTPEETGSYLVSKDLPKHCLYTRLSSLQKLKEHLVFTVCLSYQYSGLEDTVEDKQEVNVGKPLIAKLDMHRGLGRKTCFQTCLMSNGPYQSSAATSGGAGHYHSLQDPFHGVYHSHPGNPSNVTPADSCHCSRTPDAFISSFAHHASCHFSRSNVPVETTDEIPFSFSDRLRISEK
The final assay buffer includes 1 nM (Assay 2) or 2 nM (Assay 1) of MALT1 full-length protein, 50 μM Ac-LRSR-AMC substrate, 50 mM Tris pH 7.5, 600 mM Sodium Citrate, 1 mM DTT, 1 mM EDTA, and 0.05% BSA in 384-well plate format using black microtiter square well plates (Optiplate 384-F, Perkin Elmer).
Test compounds were dissolved in 100% DMSO at stock of 10 mM, with final DMSO concentration 0.1%. Test compounds were pre-incubated with MALT1 protein for 2 h at room temperature. Substrate was added after the pre-incubation and fluorescence signal was measured using Envision at excitation 355 nm and emission 460 nm after 8 hr incubation at RT.
The fluorescence units were transformed to percentage of remaining activity by using the high control (HC, median of fluorescence signal from wells containing MALT1 protein, substrate, and DMSO) and low control (LC, median of fluorescence signal from wells with substrate only) with the formula below: […]
IC50 and Hill coefficient were obtained using Graph Pad Prism (Graph Pad software, Inc, USA) with non-linear regression analysis.
As for `Cc1cc(NC(=O)N2C[C@@](C)(C(F)(F)F)c3c2cnc2cc(Cl)nn32)cc(OC[C@H](C)N)n1` [compound 58, (R)-N-(2-((S)-2-aminopropoxy)-6-methylpyridin-4-yl)-2-chloro-8-methyl-8-(trifluoromethyl)-7,8-dihydro-6H-pyrazolo[1,5-a]pyrrolo[2,3-e]pyrimidine-6-carboxamide], the IC50 lay in the range of 10 to 100 nM. Regarding `CC(C)(O)c1cc(NC(=O)N2C[C@@](C)(C(F)(F)F)c3c2cnc2cc(Cl)nn32)cc(C(F)(F)F)n1` [compound 78, (R)-2-chloro-N-(2-(2-hydroxypropan-2-yl)-6-(trifluoromethyl)pyridin-4-yl)-8-methyl-8-(trifluoromethyl)-7,8-dihydro-6H-pyrazolo[1,5-a]pyrrolo[2,3-e]pyrimidine-6-carboxamide], the IC50 fell in the range of 100 to 1000 nM. On to `CC(O)c1cc2ncc3c(n2n1)C(C)(C(F)(F)F)CN3C(=O)Nc1cnc(-n2nccn2)c(Cl)c1` (stereo not shown) [compound 80, N-(5-chloro-6-(2H-1,2,3-triazol-2-yl)pyridin-3-yl)-2-(1-hydroxyethyl)-8-methyl-8-(trifluoromethyl)-7,8-dihydro-6H-pyrazolo[1,5-a]pyrrolo[2,3-e]pyrimidine-6-carboxamide], for which the IC50 is 100 to 1000 nM. For `COc1nc(OC2CN(C)C2)c(NC(=O)N2C[C@@](C)(C(F)(F)F)c3c2cnc2cc(Cl)nn32)cc1Cl` [compound 81, (R)-2-chloro-N-(5-chloro-6-methoxy-2-((1-methylazetidin-3-yl)oxy)pyridin-3-yl)-8-methyl-8-(trifluoromethyl)-7,8-dihydro-6H-pyrazolo[1,5-a]pyrrolo[2,3-e]pyrimidine-6-carboxamide], the IC50 is 100 to 1000 nM. `C[C@]1(C(F)(F)F)CN(C(=O)Nc2cnc(-n3nccn3)c(C#N)c2)c2cnc3cc(F)nn3c21` [compound 90, (S)-N-(5-cyano-6-(2H-1,2,3-triazol-2-yl)pyridin-3-yl)-2-fluoro-8-methyl-8-(trifluoromethyl)-7,8-dihydro-6H-pyrazolo[1,5-a]pyrrolo[2,3-e]pyrimidine-6-carboxamide] returned an IC50 of 10 to 100 nM.

The test system of another test is IL10 secretion, OCI-LY10 cells. Briefly: Human IL10 secretion assay, Assay 1 (HTRF). The format is cell-based. The conditions noted are these: 24 h incubation, read-out: IL-10 Secretion IC50 [nM] Assay 1. The procedure: IL10 is one of the cytokines that are regulated via activation of NF-kB signaling. For example, in ABC-DLBCL cell lines, the activated NF-kB signaling leads to increased IL10 secretion. Inhibition of NF-kB signaling has been shown leading to decreased IL10 secretion.
Assay 1: OCI-LY10 cells were seeded in IMEM supplemented with 20% fetal bovine serum at 3×10^5 cells per well in 96-well round bottom plates (Corning 3799, Corning), treated with 100 nL of 3-fold serial compound dilutions, starting at 10 mM. The final vehicle concentration was 0.1% DMSO in all wells. After 24 h incubation, the cells were transferred to 96-PCR plates (Axygen: PCR-96-FLT-C) and centrifuged, then 16 μL of cell culture media was transferred to HTRF plates and IL10 levels were measured using human IL-10 Assay Kits (Cisbio) using HTRF format. The signals were transformed to percentage of remaining activity by using the high control (HC, median of signal from wells containing cells treated with DMSO) and low control (LC, median of signal from wells with no cells). IC50 values (nM) were determined using 4-parametric curve-fitting and Hill coefficient were obtained using Graph Pad Prism (Graph Pad software, Inc, USA) with non-linear regression analysis.
Background: TR-FRET usually uses a lanthanide donor and a delayed reading to cut background.
For the compound `CC1(C)CCN(C(=O)Nc2cnc(-n3nccn3)c(Cl)c2)c2cnc3cc(Cl)nn3c21` [compound 7, 2-chloro-N-(5-chloro-6-(2H-1,2,3-triazol-2-yl)pyridin-3-yl)-9,9-dimethyl-8,9-dihydropyrazolo[1,5-a]pyrido[2,3-e]pyrimidine-6(7H)-carboxamide], the IC50 lay in the range of 10 to 100 nM. As for `Cc1cc2ncc3c(n2n1)C(C(F)(F)F)CCN3C(=O)Nc1cnc(-n2nccn2)c(Cl)c1` (stereo not shown) [compound 10, N-(5-chloro-6-(2H-1,2,3-triazol-2-yl)pyridin-3-yl)-2-methyl-9-(trifluoromethyl)-8,9-dihydropyrazolo[1,5-a]pyrido[2,3-e]pyrimidine-6(7H)-carboxamide], the IC50 is 100 to 1000 nM. On to `COc1ncc(NC(=O)N2C[C@@](C)(C(F)(F)F)c3c2cnc2cc(Cl)nn32)cc1Cl` [compound 18, (R)-2-chloro-N-(5-chloro-6-methoxypyridin-3-yl)-8-methyl-8-(trifluoromethyl)-7,8-dihydro-6H-pyrazolo[1,5-a]pyrrolo[2,3-e]pyrimidine-6-carboxamide], for which the IC50 is 10 to 100 nM. Regarding `COc1ccc(NC(=O)N2C[C@@](C)(C(F)(F)F)c3c2cnc2cc(Cl)nn32)cc1Cl` [compound 19, (R)-2-chloro-N-(3-chloro-4-methoxyphenyl)-8-methyl-8-(trifluoromethyl)-7,8-dihydro-6H-pyrazolo[1,5-a]pyrrolo[2,3-e]pyrimidine-6-carboxamide], the 50% inhibitory concentration (IC50) lay in the range of 100 to 1000 nM. As for `Cc1cc(NC(=O)N2C[C@@](C)(C(F)(F)F)c3c2cnc2cc(Cl)nn32)cnc1-n1nccn1` [compound 21, (R)-2-chloro-8-methyl-N-(5-methyl-6-(2H-1,2,3-triazol-2-yl)pyridin-3-yl)-8-(trifluoromethyl)-7,8-dihydro-6H-pyrazolo[1,5-a]pyrrolo[2,3-e]pyrimidine-6-carboxamide], the IC50 fell in the range of 10 to 100 nM. Turning to `C[C@@]1(C(F)(F)F)CN(C(=O)Nc2ccnc(C(F)(F)F)c2)c2cnc3cc(Cl)nn3c21` [compound 27, (R)-2-chloro-8-methyl-8-(trifluoromethyl)-N-(2-(trifluoromethyl)pyridin-4-yl)-7,8-dihydro-6H-pyrazolo[1,5-a]pyrrolo[2,3-e]pyrimidine-6-carboxamide], the IC50 was in the range of 10 to 100 nM. The same measure, in the same setting: the value for `C[C@@]1(C(F)(F)F)CN(C(=O)Nc2cnc(-n3ccnn3)c(C(F)F)c2)c2cnc3cc(Cl)nn3c21` [compound 36, (R)-2-chloro-N-(5-(difluoromethyl)-6-(1H-1,2,3-triazol-1-yl)pyridin-3-yl)-8-methyl-8-(trifluoromethyl)-7,8-dihydro-6H-pyrazolo[1,5-a]pyrrolo[2,3-e]pyrimidine-6-carboxamide] was 10 to 100 nM. Regarding `C[C@@]1(C(F)(F)F)CN(C(=O)Nc2cnc(-n3nccn3)c(C#N)c2)c2cnc3cc(Cl)nn3c21` [compound 41, (R)-2-chloro-N-(5-cyano-6-(2H-1,2,3-triazol-2-yl)pyridin-3-yl)-8-methyl-8-(trifluoromethyl)-7,8-dihydro-6H-pyrazolo[1,5-a]pyrrolo[2,3-e]pyrimidine-6-carboxamide], the IC50 lay within 10 to 100 nM.

For `C[C@@]1(C(F)(F)F)CN(C(=O)Nc2cnc(-n3ccnn3)c(C(F)(F)F)c2)c2cnc3cc(Cl)nn3c21` [compound 44, (R)-N-(6-(1H-1,2,3-triazol-1-yl)-5-(trifluoromethyl)pyridin-3-yl)-2-chloro-8-methyl-8-(trifluoromethyl)-7,8-dihydro-6H-pyrazolo[1,5-a]pyrrolo[2,3-e]pyrimidine-6-carboxamide], the IC50 is 10 to 100 nM. On to `C[C@@]1(C(F)(F)F)CN(C(=O)Nc2cnc(-n3cc(O)cn3)c(Cl)c2)c2cnc3cc(Cl)nn3c21` [compound 48], for which the IC50 lay within 10 to 100 nM.

Regarding `C[C@@]1(C(F)(F)F)CN(C(=O)Nc2cnc(-n3cc(CO)cn3)c(Cl)c2)c2cnc3cc(Cl)nn3c21` [compound 57, (R)-2-chloro-N-(5-chloro-6-(4-(hydroxymethyl)-1H-pyrazol-1-yl)pyridin-3-yl)-8-methyl-8-(trifluoromethyl)-7,8-dihydro-6H-pyrazolo[1,5-a]pyrrolo[2,3-e]pyrimidine-6-carboxamide], the IC50 lay within 10 to 100 nM. As for `C[C@@]1(C(F)(F)F)CN(C(=O)Nc2ccnc(C(F)F)c2)c2cnc3cc(Cl)nn3c21` [compound 60, (R)-2-chloro-N-(2-(difluoromethyl)pyridin-4-yl)-8-methyl-8-(trifluoromethyl)-7,8-dihydro-6H-pyrazolo[1,5-a]pyrrolo[2,3-e]pyrimidine-6-carboxamide], the IC50 was in the range of 10 to 100 nM. In the case of `COc1c(Cl)cc(NC(=O)N2C[C@@](C)(C(F)(F)F)c3c2cnc2cc(Cl)nn32)nc1O[C@H]1CCNC1` [compound 63, (R)-2-chloro-N-(4-chloro-5-methoxy-6-(((S)-pyrrolidin-3-yl)oxy)pyridin-2-yl)-8-methyl-8-(trifluoromethyl)-7,8-dihydro-6H-pyrazolo[1,5-a]pyrrolo[2,3-e]pyrimidine-6-carboxamide], the IC50 is 10 to 100 nM. The same measure, in the same setting: with `COc1cnc(C(F)(F)F)cc1NC(=O)N1C[C@@](C)(C(F)(F)F)c2c1cnc1cc(Cl)nn21` [compound 66, (R)-2-chloro-N-(5-methoxy-2-(trifluoromethyl)pyridin-4-yl)-8-methyl-8-(trifluoromethyl)-7,8-dihydro-6H-pyrazolo[1,5-a]pyrrolo[2,3-e]pyrimidine-6-carboxamide] the figure was 100 to 1000 nM.

As to `COCc1cnn(-c2ncc(NC(=O)N3C[C@@](C)(C(F)(F)F)c4c3cnc3cc(Cl)nn43)cc2Cl)n1` [compound 79, (R)-2-chloro-N-(5-chloro-6-(4-(methoxymethyl)-2H-1,2,3-triazol-2-yl)pyridin-3-yl)-8-methyl-8-(trifluoromethyl)-7,8-dihydro-6H-pyrazolo[1,5-a]pyrrolo[2,3-e]pyrimidine-6-carboxamide], the IC50 was 10 to 100 nM. Consider `C[C@@]1(C(F)(F)F)CN(C(=O)Nc2cc(N=S(C)(C)=O)nc(C(F)(F)F)c2)c2cnc3cc(Cl)nn3c21` [compound 83], for which the IC50 was 100 to 1000 nM.

With `C[C@@]1(C(F)(F)F)CN(C(=O)Nc2cnc(N=S(C)(C)=O)c(Cl)c2)c2cnc3cc(Cl)nn3c21` [compound 85], the half-maximal inhibitory concentration (IC50) was in the range of 100 to 1000 nM.
